Data published in PMC10174618, “Monoterpenoid aryl hydrocarbon receptor allosteric antagonists protect against ultraviolet skin damage in female mice” (Nature Communications, 2023).

Legend:
Assay in all cases: biochemical
Set-up in all cases: KINOMEscan scanMAX active site-directed competition binding assay, percent of control, 468 kinases
Conditions in all cases: competition binding, percent of control
ALK(C1156Y) = ALK(C1156Y) (Homo sapiens, UniProt Q9UM73, C1156Y)
Outline: (§1)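 Single-concentration screen (100 μM S-carvone) in a competition binding panel of 468 human kinases (KINOMEscan scanMAX); results given as percent of control, hit cutoff 35%.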

AMPK-alpha1 = molecular target: T1, AMPK-alpha1 (Homo sapiens, UniProt Q13131)
T1 construct: gene PRKAA1
Outline: as §1

AURKA = AURKA (Homo sapiens, UniProt O14965)
Outline: as §1

AURKC = AURKC (Homo sapiens, UniProt Q9UQB9)
Outline: as §1

CHEK2 = CHEK2 (Homo sapiens, UniProt O96017)
CHEK2, sequence (O96017 whole entry): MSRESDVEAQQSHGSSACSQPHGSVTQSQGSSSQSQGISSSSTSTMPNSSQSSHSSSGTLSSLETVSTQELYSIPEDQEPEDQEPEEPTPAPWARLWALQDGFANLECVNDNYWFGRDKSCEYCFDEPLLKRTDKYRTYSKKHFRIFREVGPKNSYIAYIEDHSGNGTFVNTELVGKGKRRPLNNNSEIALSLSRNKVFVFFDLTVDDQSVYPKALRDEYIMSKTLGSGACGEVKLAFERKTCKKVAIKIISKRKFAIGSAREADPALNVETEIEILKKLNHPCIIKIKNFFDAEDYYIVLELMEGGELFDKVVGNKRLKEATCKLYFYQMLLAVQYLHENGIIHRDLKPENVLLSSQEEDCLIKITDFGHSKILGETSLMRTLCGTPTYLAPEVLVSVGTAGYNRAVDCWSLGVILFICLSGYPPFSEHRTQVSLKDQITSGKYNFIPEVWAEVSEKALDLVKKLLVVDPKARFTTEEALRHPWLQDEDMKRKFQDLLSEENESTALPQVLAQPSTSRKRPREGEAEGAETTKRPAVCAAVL
Outline: as §1

CSF1R = CSF1R (Homo sapiens, UniProt P07333)
Outline: as §1

CSNK1A1 = CSNK1A1 (Homo sapiens, UniProt P48729)
Outline: as §1

CSNK2A1 = CSNK2A1 (Homo sapiens, UniProt P68400)
Outline: as §1

EGFR(T790M) = EGFR(T790M) (Homo sapiens, UniProt P00533, T790M)
EGFR(T790M), sequence (P00533 whole entry T790M): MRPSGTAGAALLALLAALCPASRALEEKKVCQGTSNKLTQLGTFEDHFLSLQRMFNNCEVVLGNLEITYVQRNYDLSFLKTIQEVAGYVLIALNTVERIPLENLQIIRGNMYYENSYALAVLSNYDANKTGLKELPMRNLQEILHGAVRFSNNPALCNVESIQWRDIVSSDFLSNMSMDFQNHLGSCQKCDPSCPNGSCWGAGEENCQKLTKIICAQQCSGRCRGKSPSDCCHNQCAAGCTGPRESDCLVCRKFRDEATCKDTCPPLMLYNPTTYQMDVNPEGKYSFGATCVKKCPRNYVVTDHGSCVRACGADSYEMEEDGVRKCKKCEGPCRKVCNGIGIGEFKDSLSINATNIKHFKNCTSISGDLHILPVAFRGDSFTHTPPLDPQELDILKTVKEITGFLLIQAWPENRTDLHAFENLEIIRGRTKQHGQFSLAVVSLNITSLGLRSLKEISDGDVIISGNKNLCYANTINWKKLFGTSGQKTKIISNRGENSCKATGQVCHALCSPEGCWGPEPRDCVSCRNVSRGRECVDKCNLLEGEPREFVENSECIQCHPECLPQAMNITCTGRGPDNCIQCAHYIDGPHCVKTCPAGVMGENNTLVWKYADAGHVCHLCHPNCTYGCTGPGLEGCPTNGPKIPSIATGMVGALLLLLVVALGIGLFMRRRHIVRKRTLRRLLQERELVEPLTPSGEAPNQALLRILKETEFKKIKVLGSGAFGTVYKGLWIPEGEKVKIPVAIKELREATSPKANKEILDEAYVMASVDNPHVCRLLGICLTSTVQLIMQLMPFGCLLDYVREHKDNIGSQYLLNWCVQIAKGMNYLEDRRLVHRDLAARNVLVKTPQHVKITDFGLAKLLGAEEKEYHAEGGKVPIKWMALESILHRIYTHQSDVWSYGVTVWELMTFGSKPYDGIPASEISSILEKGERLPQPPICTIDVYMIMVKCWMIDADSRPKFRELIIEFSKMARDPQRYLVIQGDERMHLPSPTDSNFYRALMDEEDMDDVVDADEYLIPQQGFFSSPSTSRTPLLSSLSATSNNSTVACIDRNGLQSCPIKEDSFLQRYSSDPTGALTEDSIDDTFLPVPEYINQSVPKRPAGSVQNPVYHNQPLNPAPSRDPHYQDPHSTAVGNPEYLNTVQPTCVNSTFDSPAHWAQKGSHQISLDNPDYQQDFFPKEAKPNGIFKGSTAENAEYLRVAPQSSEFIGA
Outline: as §1

FAK = molecular target: T2, FAK (Homo sapiens, UniProt Q05397)
T2 construct: gene PTK2
Outline: as §1

FLT3-autoinhibited = FLT3-autoinhibited (Homo sapiens, UniProt P36888)
Outline: as §1

FRK = FRK (Homo sapiens, UniProt P42685)
FRK, sequence (P42685 whole entry): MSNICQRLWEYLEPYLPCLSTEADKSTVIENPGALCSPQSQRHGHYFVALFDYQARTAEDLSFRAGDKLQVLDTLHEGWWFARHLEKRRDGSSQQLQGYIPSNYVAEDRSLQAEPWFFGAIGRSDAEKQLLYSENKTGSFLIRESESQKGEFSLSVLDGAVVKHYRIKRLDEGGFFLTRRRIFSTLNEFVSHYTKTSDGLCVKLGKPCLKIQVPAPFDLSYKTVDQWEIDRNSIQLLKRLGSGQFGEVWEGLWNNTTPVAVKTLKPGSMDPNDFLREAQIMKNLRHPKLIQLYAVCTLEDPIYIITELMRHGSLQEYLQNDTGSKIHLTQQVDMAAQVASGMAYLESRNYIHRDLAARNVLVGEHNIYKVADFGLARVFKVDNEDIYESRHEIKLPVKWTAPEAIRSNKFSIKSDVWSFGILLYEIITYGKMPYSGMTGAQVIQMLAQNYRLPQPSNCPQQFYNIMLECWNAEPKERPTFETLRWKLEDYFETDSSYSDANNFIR
Outline: as §1

GRK2 = GRK2 (Homo sapiens, UniProt P25098)
GRK2, sequence (P25098 whole entry): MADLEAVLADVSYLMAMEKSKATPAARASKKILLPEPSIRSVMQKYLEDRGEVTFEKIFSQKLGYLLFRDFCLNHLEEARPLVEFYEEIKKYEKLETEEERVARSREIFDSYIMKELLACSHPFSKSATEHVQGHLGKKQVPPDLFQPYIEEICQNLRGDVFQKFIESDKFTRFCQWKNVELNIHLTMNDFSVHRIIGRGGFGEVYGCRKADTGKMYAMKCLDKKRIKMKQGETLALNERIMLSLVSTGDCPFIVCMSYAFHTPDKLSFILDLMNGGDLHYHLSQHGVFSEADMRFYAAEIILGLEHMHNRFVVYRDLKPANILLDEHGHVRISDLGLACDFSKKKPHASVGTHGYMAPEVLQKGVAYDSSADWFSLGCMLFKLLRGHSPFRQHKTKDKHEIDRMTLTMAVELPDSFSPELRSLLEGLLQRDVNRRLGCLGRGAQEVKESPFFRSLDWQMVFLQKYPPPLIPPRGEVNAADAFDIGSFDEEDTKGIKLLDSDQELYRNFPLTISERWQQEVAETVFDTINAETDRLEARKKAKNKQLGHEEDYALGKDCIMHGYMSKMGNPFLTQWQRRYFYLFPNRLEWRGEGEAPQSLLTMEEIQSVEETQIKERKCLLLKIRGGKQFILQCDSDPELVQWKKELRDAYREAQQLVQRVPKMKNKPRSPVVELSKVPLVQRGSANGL
Outline: as §1

ITK = ITK (Homo sapiens, UniProt Q08881)
ITK, sequence (Q08881 whole entry): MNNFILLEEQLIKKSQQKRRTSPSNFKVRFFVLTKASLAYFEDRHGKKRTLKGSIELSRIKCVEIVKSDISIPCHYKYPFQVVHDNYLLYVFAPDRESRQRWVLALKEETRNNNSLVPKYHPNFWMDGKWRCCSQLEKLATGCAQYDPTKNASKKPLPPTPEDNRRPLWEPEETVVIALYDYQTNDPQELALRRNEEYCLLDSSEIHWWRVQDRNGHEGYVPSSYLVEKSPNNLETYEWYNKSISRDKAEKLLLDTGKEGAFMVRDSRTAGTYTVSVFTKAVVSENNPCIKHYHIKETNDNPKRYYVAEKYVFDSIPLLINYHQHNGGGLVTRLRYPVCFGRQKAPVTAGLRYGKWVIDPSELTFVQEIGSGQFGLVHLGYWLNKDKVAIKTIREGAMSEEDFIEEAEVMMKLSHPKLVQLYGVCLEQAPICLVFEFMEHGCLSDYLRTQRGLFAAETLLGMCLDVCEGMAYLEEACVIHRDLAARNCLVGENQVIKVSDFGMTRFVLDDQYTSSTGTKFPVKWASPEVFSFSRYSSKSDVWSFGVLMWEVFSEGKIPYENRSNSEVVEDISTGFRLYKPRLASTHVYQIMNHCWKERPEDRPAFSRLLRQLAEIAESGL
Outline: as §1

MUSK = MUSK (Homo sapiens, UniProt O15146)
Outline: as §1

NEK5 = NEK5 (Homo sapiens, UniProt Q6P3R8)
NEK5, sequence (Q6P3R8 whole entry): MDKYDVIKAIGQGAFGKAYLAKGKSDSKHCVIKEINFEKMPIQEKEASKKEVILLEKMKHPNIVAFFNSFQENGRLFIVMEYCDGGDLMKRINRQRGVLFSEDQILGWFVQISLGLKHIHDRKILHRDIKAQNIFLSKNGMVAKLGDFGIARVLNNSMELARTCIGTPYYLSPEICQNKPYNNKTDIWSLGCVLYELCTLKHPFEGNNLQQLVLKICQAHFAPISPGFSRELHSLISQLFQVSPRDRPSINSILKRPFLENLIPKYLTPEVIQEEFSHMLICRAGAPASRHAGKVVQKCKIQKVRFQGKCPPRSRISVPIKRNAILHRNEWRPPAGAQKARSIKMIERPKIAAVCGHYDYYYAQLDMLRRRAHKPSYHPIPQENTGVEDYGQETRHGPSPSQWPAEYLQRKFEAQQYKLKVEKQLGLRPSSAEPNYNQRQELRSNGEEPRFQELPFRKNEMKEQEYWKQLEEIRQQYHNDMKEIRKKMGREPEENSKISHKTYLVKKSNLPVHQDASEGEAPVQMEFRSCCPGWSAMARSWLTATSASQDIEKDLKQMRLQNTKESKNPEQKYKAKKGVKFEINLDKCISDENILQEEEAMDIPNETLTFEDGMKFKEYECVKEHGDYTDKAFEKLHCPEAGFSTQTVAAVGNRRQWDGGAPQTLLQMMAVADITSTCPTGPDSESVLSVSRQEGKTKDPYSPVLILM
Outline: as §1

PCTK1 = molecular target: T3, PCTK1 (Homo sapiens, UniProt Q00536)
T3 construct: gene CDK16
Outline: as §1

PDGFRA = PDGFRA (Homo sapiens, UniProt P16234)
Outline: as §1

PIKFYVE = PIKFYVE (Homo sapiens, UniProt Q9Y2I7)
Outline: as §1

PRKG1 = PRKG1 (Homo sapiens, UniProt Q13976)
PRKG1, sequence (Q13976 whole entry): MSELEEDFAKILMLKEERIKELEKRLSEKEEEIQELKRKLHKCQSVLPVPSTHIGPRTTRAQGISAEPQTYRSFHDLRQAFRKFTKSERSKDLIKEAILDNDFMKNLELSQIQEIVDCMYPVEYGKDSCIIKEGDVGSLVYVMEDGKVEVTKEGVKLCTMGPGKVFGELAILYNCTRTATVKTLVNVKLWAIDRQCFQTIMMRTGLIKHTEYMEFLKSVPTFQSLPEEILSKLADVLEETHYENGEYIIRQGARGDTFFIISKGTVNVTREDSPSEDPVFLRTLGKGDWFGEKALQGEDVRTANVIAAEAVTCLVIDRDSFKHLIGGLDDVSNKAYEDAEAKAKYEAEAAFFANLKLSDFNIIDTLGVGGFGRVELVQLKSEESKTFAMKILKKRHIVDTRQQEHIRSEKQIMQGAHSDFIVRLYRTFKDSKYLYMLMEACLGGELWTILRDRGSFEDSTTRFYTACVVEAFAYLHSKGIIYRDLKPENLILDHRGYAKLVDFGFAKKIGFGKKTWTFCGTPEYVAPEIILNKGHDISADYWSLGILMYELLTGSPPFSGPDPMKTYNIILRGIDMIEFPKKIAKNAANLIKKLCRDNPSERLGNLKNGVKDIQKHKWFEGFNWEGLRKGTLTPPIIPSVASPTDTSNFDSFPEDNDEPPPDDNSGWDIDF
Outline: as §1

SGK3 = SGK3 (Homo sapiens, UniProt Q96BR1)
Outline: as §1

STK33 = STK33 (Homo sapiens, UniProt Q9BYT3)
Outline: as §1

remaining binding at 100 µM (ALK(C1156Y)): 70%
remaining binding at 100 µM (AMPK-alpha1): 89%
remaining binding at 100 µM (AURKA): 81%
remaining binding at 100 µM (AURKC): 100%
remaining binding at 100 µM (CHEK2): 99%
remaining binding at 100 µM (CSF1R): 86%
remaining binding at 100 µM (CSNK1A1): 68%
remaining binding at 100 µM (CSNK2A1): 71%
remaining binding at 100 µM (EGFR(T790M)): 64%
remaining binding at 100 µM (FAK): 81%
remaining binding at 100 µM (FLT3-autoinhibited): 67%
remaining binding at 100 µM (FRK): 83%
remaining binding at 100 µM (GRK2): 58%
remaining binding at 100 µM (ITK): 87%
remaining binding at 100 µM (MUSK): 100%
remaining binding at 100 µM (NEK5): 93%
remaining binding at 100 µM (PCTK1): 100%
remaining binding at 100 µM (PDGFRA): 80%
remaining binding at 100 µM (PIKFYVE): 100%
remaining binding at 100 µM (PRKG1): 84%
remaining binding at 100 µM (SGK3): 81%
remaining binding at 100 µM (STK33): 100%
Compound: C=C(C)[C@H]1CC=C(C)C(=O)C1 [S-carvone]
